Assay results from article PMC12370890 (Nature Communications, 2025).

Tested on: Tcie612
Experiment: GC-MS of hexane extract, Michaelis-Menten fit
Assay type: biochemical, Trichoderma citrinoviride
Settings: 25 mM MgCl2, 50 mM Tris-HCl pH 7.5, 100 mM KCl, 5 mM DTT, 5 mM hydroxypropyl-β-cyclodextrin, 30 °C, 30 min

## CC(C)=CCC/C(C)=C/CC/C(C)=C/CC/C(C)=C/COP(=O)(O)OP(=O)(O)O [GGPP]
  Km: 86.1 ± 8.19 µM
